Test results from patent US12662451B2, “Chemical compounds and uses thereof” (GLAXOSMITHKLINE INTELLECTUAL PROPERTY (NO.4) LIMITED, priority 2023, dated 2026).
Structures can show the parent of a compound that is named as a salt. Where two headings read alike, the source gives them in different places.

Experiments:
[1] = system: SW48 human colorectal cancer cells (MSI-H cancer cells); assay: SW48 cell viability, CellTiter-Glo, 120 hours (Example B); details: Homo sapiens
[2] = system: SW48 human colorectal cancer cells; assay: Calculated free drug potency in SW48 cell assay, corrected with media free fraction (Example C); format: cell-based; details: Homo sapiens, SW48, SW48 pCC50 corrected with measured free fraction in cell assay media
How it was run: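 Compound spiked at nominal 1 μM into cell assay medium and dialysed against PBS (100 mM sodium phosphate, 150 mM NaCl, pH 7.4) by rapid equilibrium dialysis, 4 h, 37 °C, shaking. Percent unbound from LC-MS/MS peak area ratios (240 min vs 0 min); cell assay concentrations corrected by this free fraction.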

[3] = Cell culture media unbound percentage and stability by rapid equilibrium dialysis (Example C); format: in vitro ADME; details: bovine, cell assay medium (RPMI-1640 with 10% fetal bovine serum), pH 7.4, rapid equilibrium dialysis, 4 hours at 37° C., read-out: Cell Culture Media Binding (% unbound)
How it was run: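 Compound spiked into cell culture medium at nominal 1 μM and dialysed against PBS (100 mM sodium phosphate + 150 mM NaCl, pH 7.4) by rapid equilibrium dialysis, triplicate, 4 h at 37° C with shaking. LC-MS/MS peak area ratios gave percent unbound (receiver/donor) and percent stability (240 min vs 0 min).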

[4] = target: T1, recombinant full-length WRN protein (1-1432) (Homo sapiens, UniProt Q14191); assay: WRN unwinding activity, fluorogenic 384-well assay (Example A); format: biochemical; details: WRN unwinding activity, 4 hr; Table 2; read-out: 4 hr UNW pIC50 (converted)
T1 construct: recombinant full-length WRN protein (1-1432)
How it was run: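 200 pM enzyme (2× stock) preincubated with compound 4 h at ambient temperature, then 200 μM ATP and 12 nM quenched TAMRA-labelled dsDNA (2× stocks) added for 60 min; EDTA-quenched. Buffer 25 mM Tris pH 8.0, 5 mM NaCl, 2 mM MgCl2. Fluorescence at 525/598 nm; pIC50 from four-parameter fit.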

[5] = SW48, 120 h, read-out: SW48 pCC50, SW48 cell viability, 120 hours incubation (converted), Table 2
[6] = SW48, read-out: SW48 pCC50, measured potency from Example B, as repeated in Table 3 (converted)

T1 sequence (Q14191 whole entry): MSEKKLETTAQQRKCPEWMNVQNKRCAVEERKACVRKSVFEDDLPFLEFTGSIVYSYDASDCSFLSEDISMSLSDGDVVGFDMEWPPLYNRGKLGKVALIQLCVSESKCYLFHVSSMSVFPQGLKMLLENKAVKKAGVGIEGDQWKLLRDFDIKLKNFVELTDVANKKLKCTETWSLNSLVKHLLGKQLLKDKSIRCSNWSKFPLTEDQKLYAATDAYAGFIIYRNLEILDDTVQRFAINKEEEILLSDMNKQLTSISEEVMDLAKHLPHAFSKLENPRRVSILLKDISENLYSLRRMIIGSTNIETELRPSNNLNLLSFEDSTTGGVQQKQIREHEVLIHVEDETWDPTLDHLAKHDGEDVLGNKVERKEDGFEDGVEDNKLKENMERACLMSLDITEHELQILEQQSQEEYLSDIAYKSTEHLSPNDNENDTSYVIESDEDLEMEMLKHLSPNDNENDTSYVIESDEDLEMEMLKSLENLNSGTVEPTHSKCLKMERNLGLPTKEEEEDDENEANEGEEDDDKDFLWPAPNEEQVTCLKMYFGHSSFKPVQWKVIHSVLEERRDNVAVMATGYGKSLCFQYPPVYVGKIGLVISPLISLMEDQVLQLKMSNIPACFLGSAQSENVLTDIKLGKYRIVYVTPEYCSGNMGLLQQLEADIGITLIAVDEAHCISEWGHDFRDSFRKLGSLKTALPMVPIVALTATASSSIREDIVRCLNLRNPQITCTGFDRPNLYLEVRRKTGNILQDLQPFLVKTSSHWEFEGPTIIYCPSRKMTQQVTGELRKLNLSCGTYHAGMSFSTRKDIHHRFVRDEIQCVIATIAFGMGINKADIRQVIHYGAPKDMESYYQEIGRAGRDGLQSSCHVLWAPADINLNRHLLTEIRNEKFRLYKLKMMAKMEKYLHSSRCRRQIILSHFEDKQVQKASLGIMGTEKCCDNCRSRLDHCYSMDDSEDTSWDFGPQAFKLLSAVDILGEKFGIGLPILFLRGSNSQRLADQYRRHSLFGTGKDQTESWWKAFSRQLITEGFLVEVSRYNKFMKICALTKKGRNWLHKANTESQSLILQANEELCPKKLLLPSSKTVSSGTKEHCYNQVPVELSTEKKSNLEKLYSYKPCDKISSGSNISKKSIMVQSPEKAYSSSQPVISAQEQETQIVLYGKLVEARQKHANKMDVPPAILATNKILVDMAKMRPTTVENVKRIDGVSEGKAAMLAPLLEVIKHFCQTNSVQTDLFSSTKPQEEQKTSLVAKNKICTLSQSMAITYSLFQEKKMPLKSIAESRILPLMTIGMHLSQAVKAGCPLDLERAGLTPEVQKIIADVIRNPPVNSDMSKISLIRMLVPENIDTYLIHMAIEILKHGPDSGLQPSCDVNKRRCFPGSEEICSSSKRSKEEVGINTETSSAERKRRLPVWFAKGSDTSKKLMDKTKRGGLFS

| SMILES | CC50 [1, 5] [nM] | CC50 [1, 6] [nM] | CC50 [2] [nM] | fraction unbound at 4 h, 1 µM [3] | IC50 [4] [nM] |
| --- | --- | --- | --- | --- | --- |
| Cc1nc2cc(S(=O)(=O)N(C)c3ccc([C@H]4C[C@@H](OCC5(C)COC5)C[C@@H](C(=O)Nc5ccc(C(F)(F)F)cc5F)[C@@H]4C(=O)O)cc3)ccc2n1C (stereo in doubt) [Example 367, rel-(1R,2R,4R,6S)-2-((2-fluoro-4-(trifluoromethyl)phenyl)carbamoyl)-4-((3-methyloxetan-3-yl)methoxy)-6-(4-((N,1,2-trimethyl-1H-benzo[d]imidazole)-5-sulfonamido)phenyl)cyclohexane-1-carboxylic acid] | 79.4 | 79.4 | 11.5 | 0.145 | 1.58 |
| CC(=O)N(C)[C@@H]1C[C@H](c2ccc(N(C)S(=O)(=O)c3ccc4c(c3)nc(C)n4C)cc2)[C@@H](C(=O)O)[C@H](C(=O)Nc2ccc(C(F)(F)F)cc2F)C1 (stereo in doubt) [Example 292, rel-(1R,2R,4R,6S)-2-((2-fluoro-4-(trifluoromethyl)phenyl)carbamoyl)-4-(N-methylacetamido)-6-(4-((N,1,2-trimethyl-1H-benzo[d]imidazole)-5-sulfonamido)phenyl)cyclohexane-1-carboxylic acid] | 794 | 794 | 178 | 0.223 | 1.58 |
| Cc1nc2cc(S(=O)(=O)N(C)c3ccc([C@H]4CCC[C@@H](C(=O)Nc5ccc(C(F)(F)F)cc5F)[C@@H]4C(=O)O)cc3)cc(F)c2n1C [Example 126, (1R,2R,6S)-2-((2-fluoro-4-(trifluoromethyl)phenyl)carbamoyl)-6-(4-((7-fluoro-N, 1,2-trimethyl-1H-benzo[d]imidazole)-5-sulfonamido)phenyl)cyclohexane-1-carboxylic acid] | 631 | 631 | 36.3 | 0.058 | 6.31 |
| CN(c1ccc([C@H]2CCC[C@@H](C(=O)Nc3ccc(C(F)(F)F)cc3F)[C@@H]2C(=O)O)cc1)S(=O)(=O)c1ccc2c(c1)nc(N)n2C [Example 266, (1R,2S,6R)-2-(4-((2-amino-N,1-dimethyl-1H-benzo[d]imidazole)-5-sulfonamido)phenyl)-6-((2-fluoro-4-(trifluoromethyl)phenyl)carbamoyl)cyclohexane-1-carboxylic acid] | 398 | 398 | 56.2 | 0.141 | 1.26 |
| Cc1nc2cc(S(=O)(=O)N(C)c3ccc([C@H]4CCC[C@@H](C(=O)Nc5ccc6c(c5)CC(F)(F)C6)[C@@H]4C(=O)O)cc3)ccc2n1C [Example 194, (1R,2R,6S)-2-((2,2-difluoro-2,3-dihydro-1H-inden-5-yl)carbamoyl)-6-(4-((N,1,2-trimethyl-1H-benzo[d]imidazole)-5-sulfonamido)phenyl)cyclohexane-1-carboxylic acid] | 10000 | – | 1150 | 0.114 | 7.94 |
| CN1CCOc2ccc(S(=O)(=O)N(C)c3ccc([C@H]4CCC[C@@H](C(=O)Nc5ccc(C(F)(F)F)cc5F)[C@@H]4C(=O)O)cc3)cc21 [Example 122, (1R,2S,6R)-2-(4-((N,4-dimethyl-3,4-dihydro-2H-benzo[b][1,4]oxazine)-6-sulfonamido)phenyl)-6-((2-fluoro-4-cyclohe(trifluoromethyl)phenyl)carbamoyl)xane-1-carboxylic acid] | 1000 | 1000 | 5.62 | 0.0056 | 7.94 |
| Cc1nc2cc(S(=O)(=O)N(C)c3ccc([C@H]4C[C@H](N5CC6(F)CC5C6)C[C@@H](C(=O)Nc5ccc(C(F)(F)F)cc5F)[C@@H]4C(=O)O)cc3)ccc2n1C (relative stereo) [Example 400, rel-(1R,2R,4S,6S)-2-((2-fluoro-4-(trifluoromethyl)phenyl)carbamoyl)-4-(4-fluoro-2-azabicyclo[2.1.1]hexan-2-yl)-6-(4-((N,1,2-trimethyl-1H-benzo[d]imidazole)-5-sulfonamido)phenyl)cyclohexane-1-carboxylic acid] | 7940 | 7940 | 389 | 0.049 | 20 |
| CCO[C@@H]1C[C@H](c2ccc(N(C)S(=O)(=O)c3ccc4c(c3)nc(C)n4C)cc2)[C@@H](C(=O)O)[C@H](C(=O)Nc2ccc(C(F)(F)F)cn2)C1 (single isomer, unassigned) [Example 199] | 501 | 501 | 79.4 | 0.16 | 2.51 |
| CN(C)CCc1nc2cc(S(=O)(=O)N(C)c3ccc([C@H]4CCC[C@@H](C(=O)Nc5ccc(C(F)(F)F)cc5F)[C@@H]4C(=O)O)cc3)ccc2n1C [Example 272, (1R,2S,6R)-2-(4-((2-(2-(dimethylamino)ethyl)-N,1-dimethyl-1H-benzo[d]imidazole)-5-sulfonamido)phenyl)-6-((2-fluoro-4-(trifluoromethyl)phenyl)carbamoyl)cyclohexane-1-carboxylic acid] | 158 | 158 | 37.2 | 0.236 | 1.58 |
| CCc1ccc(NC(=O)[C@@H]2CCC[C@H](c3ccc(N(C)S(=O)(=O)c4ccc5c(c4)nc(C)n5C)cc3)[C@H]2C(=O)O)cc1 [Example 196, (1R,2R,6S)-2-((4-ethylphenyl)carbamoyl)-6-(4-((N,1,2-trimethyl-1H-benzo[d]imidazole)-5-sulfonamido)phenyl)cyclohexane-1-carboxylic acid] | 1580 | 1580 | 95.5 | 0.0606 | 3.16 |
| Cc1nc2cc(S(=O)(=O)N(C)c3ccc([C@H]4CC[C@@H](C)[C@@H](C(=O)Nc5ccc(C(F)(F)F)cc5F)[C@@H]4C(=O)O)cc3)ccc2n1C (relative stereo) [Example 235, rel-(1R,2R,3R,6S)-2-((2-fluoro-4-(trifluoromethyl)phenyl)carbamoyl)-3-methyl-6-(4-((N,1,2-trimethyl-1H-benzo[d]imidazole)-5-sulfonamido)phenyl)cyclohexane-1-carboxylic acid] | 251 | 251 | 8.32 | 0.0332 | 2 |
| Cc1nc2cc(S(=O)(=O)N(C)c3ccc([C@H]4CCC[C@@H](C(=O)Nc5ccc(C(F)(F)F)cc5F)[C@@H]4C(=O)O)cc3)cc([C@H]3CCCN(C)C3)c2n1C (relative stereo) [Example 271, (1R,2R,6S)-2-((2-fluoro-4-(trifluoromethyl)phenyl)carbamoyl)-6-(4-((N,1,2-trimethyl-7-((R*)-1-methylpiperidin-3-yl)-1H-benzo[d]imidazole)-5-sulfonamido)phenyl)cyclohexane-1-carboxylic acid] | 79.4 | 79.4 | 17.8 | 0.224 | 1.58 |
| Cc1nc2cc(S(=O)(=O)N(C)c3ccc([C@@H]4CCC[C@H](COc5ccc(C(F)(F)F)cc5)[C@H]4C(=O)O)cc3)cc([C@H]3CCCNC3)c2n1C (stereo in doubt) [Example 208, rel-(1R,2R,6S)-2-((4-(trifluoromethyl)phenoxy)methyl)-6-(4-((N,1,2-trimethyl-7-((R)-piperidin-3-yl)-1H-benzo[d]imidazole)-5-sulfonamido)phenyl)cyclohexane-1-carboxylic acid, hydrochloride] | 1260 | 1260 | 36.3 | 0.0289 | 1.58 |
